Experimental data from the NIST ThermoML archive (doi:10.1016/j.jct.2005.03.002).
Numbers after ± are expanded uncertainties.

Assay: xn = mol fraction of the nth substance listed
Conditions: 101.33 kPa, Liquid

## CCOS(=O)(=O)[O-].CCn1cc[n+](C)c1 [1-ethyl-3-methylimidazolium ethyl sulfate] + O
278.2 K, x2 = 0
  mass density: 1243 ± 6.1 kg/m3
278.2 K, x2 = 0.0503
  mass density: 1242.6 ± 6.1 kg/m3
278.2 K, x2 = 0.0983
  mass density: 1241.6 ± 6.1 kg/m3
278.2 K, x2 = 0.1495
  mass density: 1240.2 ± 6.1 kg/m3
278.2 K, x2 = 0.1996
  mass density: 1239.2 ± 6.1 kg/m3
278.2 K, x2 = 0.2505
  mass density: 1238.3 ± 6.1 kg/m3
278.2 K, x2 = 0.2999
  mass density: 1236.7 ± 6.1 kg/m3
278.2 K, x2 = 0.3504
  mass density: 1235.6 ± 6 kg/m3
278.2 K, x2 = 0.3987
  mass density: 1233.4 ± 6 kg/m3
278.2 K, x2 = 0.4505
  mass density: 1231.1 ± 6 kg/m3
278.2 K, x2 = 0.4994
  mass density: 1228.7 ± 5.9 kg/m3
278.2 K, x2 = 0.5495
  mass density: 1225.8 ± 5.9 kg/m3
278.2 K, x2 = 0.6
  mass density: 1222.1 ± 5.8 kg/m3
278.2 K, x2 = 0.6504
  mass density: 1217.2 ± 5.8 kg/m3
278.2 K, x2 = 0.6999
  mass density: 1211.5 ± 5.7 kg/m3
278.2 K, x2 = 0.7502
  mass density: 1203.2 ± 5.6 kg/m3
278.2 K, x2 = 0.8
  mass density: 1192.4 ± 5.4 kg/m3
278.2 K, x2 = 0.8499
  mass density: 1176.4 ± 5.2 kg/m3
278.2 K, x2 = 0.9
  mass density: 1149.2 ± 4.8 kg/m3
278.2 K, x2 = 0.94
  mass density: 1107.2 ± 4.2 kg/m3
288.2 K, x2 = 0
  mass density: 1236.2 ± 6 kg/m3
288.2 K, x2 = 0.0503
  mass density: 1235.5 ± 6 kg/m3
288.2 K, x2 = 0.0983
  mass density: 1234.7 ± 6 kg/m3
288.2 K, x2 = 0.1495
  mass density: 1233.5 ± 6 kg/m3
288.2 K, x2 = 0.1996
  mass density: 1232.7 ± 6 kg/m3
288.2 K, x2 = 0.2505
  mass density: 1231.1 ± 6 kg/m3
288.2 K, x2 = 0.2999
  mass density: 1229.8 ± 6 kg/m3
288.2 K, x2 = 0.3504
  mass density: 1228.5 ± 5.9 kg/m3
288.2 K, x2 = 0.3987
  mass density: 1226.6 ± 5.9 kg/m3
288.2 K, x2 = 0.4505
  mass density: 1224.4 ± 5.9 kg/m3
288.2 K, x2 = 0.4994
  mass density: 1222 ± 5.8 kg/m3
288.2 K, x2 = 0.5495
  mass density: 1219.1 ± 5.8 kg/m3
288.2 K, x2 = 0.6
  mass density: 1215.3 ± 5.7 kg/m3
288.2 K, x2 = 0.6504
  mass density: 1210.7 ± 5.7 kg/m3
288.2 K, x2 = 0.6999
  mass density: 1204.7 ± 5.6 kg/m3
288.2 K, x2 = 0.7502
  mass density: 1196.8 ± 5.5 kg/m3
288.2 K, x2 = 0.8
  mass density: 1185.7 ± 5.3 kg/m3
288.2 K, x2 = 0.8499
  mass density: 1169.9 ± 5.1 kg/m3
288.2 K, x2 = 0.9
  mass density: 1142.9 ± 4.7 kg/m3
288.2 K, x2 = 0.94
  mass density: 1101.8 ± 4.1 kg/m3
298.2 K, x2 = 0
  mass density: 1229.6 ± 5.9 kg/m3
298.2 K, x2 = 0.0503
  mass density: 1229 ± 5.9 kg/m3
298.2 K, x2 = 0.0983
  mass density: 1227.9 ± 5.9 kg/m3
298.2 K, x2 = 0.1495
  mass density: 1226.9 ± 5.9 kg/m3
298.2 K, x2 = 0.1996
  mass density: 1226.2 ± 5.9 kg/m3
298.2 K, x2 = 0.2505
  mass density: 1224.7 ± 5.9 kg/m3
298.2 K, x2 = 0.2999
  mass density: 1223.1 ± 5.9 kg/m3
298.2 K, x2 = 0.3504
  mass density: 1221.8 ± 5.8 kg/m3
298.2 K, x2 = 0.3987
  mass density: 1220.1 ± 5.8 kg/m3
298.2 K, x2 = 0.4505
  mass density: 1218 ± 5.8 kg/m3
298.2 K, x2 = 0.4994
  mass density: 1215.4 ± 5.7 kg/m3
298.2 K, x2 = 0.5495
  mass density: 1212.3 ± 5.7 kg/m3
298.2 K, x2 = 0.6
  mass density: 1208.7 ± 5.6 kg/m3
298.2 K, x2 = 0.6504
  mass density: 1203.8 ± 5.6 kg/m3
298.2 K, x2 = 0.6999
  mass density: 1198.3 ± 5.5 kg/m3
298.2 K, x2 = 0.7502
  mass density: 1190 ± 5.4 kg/m3
298.2 K, x2 = 0.8
  mass density: 1178.9 ± 5.2 kg/m3
298.2 K, x2 = 0.8499
  mass density: 1163.4 ± 5 kg/m3
298.2 K, x2 = 0.9
  mass density: 1136.6 ± 4.6 kg/m3
298.2 K, x2 = 0.94
  mass density: 1096.4 ± 4 kg/m3
308.2 K, x2 = 0
  mass density: 1223 ± 5.8 kg/m3
308.2 K, x2 = 0.0503
  mass density: 1222.6 ± 5.8 kg/m3
308.2 K, x2 = 0.0983
  mass density: 1221.6 ± 5.8 kg/m3
308.2 K, x2 = 0.1495
  mass density: 1220.5 ± 5.8 kg/m3
308.2 K, x2 = 0.1996
  mass density: 1219.5 ± 5.8 kg/m3
308.2 K, x2 = 0.2505
  mass density: 1218.3 ± 5.8 kg/m3
308.2 K, x2 = 0.2999
  mass density: 1216.6 ± 5.8 kg/m3
308.2 K, x2 = 0.3504
  mass density: 1215.3 ± 5.7 kg/m3
308.2 K, x2 = 0.3987
  mass density: 1213.4 ± 5.7 kg/m3
308.2 K, x2 = 0.4505
  mass density: 1211.2 ± 5.7 kg/m3
308.2 K, x2 = 0.4994
  mass density: 1208.8 ± 5.6 kg/m3
308.2 K, x2 = 0.5495
  mass density: 1205.8 ± 5.6 kg/m3
308.2 K, x2 = 0.6
  mass density: 1202 ± 5.5 kg/m3
308.2 K, x2 = 0.6504
  mass density: 1197.4 ± 5.5 kg/m3
308.2 K, x2 = 0.6999
  mass density: 1191.5 ± 5.4 kg/m3
308.2 K, x2 = 0.7502
  mass density: 1183.3 ± 5.3 kg/m3
308.2 K, x2 = 0.8
  mass density: 1172.4 ± 5.1 kg/m3
308.2 K, x2 = 0.8499
  mass density: 1156.8 ± 4.9 kg/m3
308.2 K, x2 = 0.9
  mass density: 1130.3 ± 4.5 kg/m3
308.2 K, x2 = 0.94
  mass density: 1090.8 ± 4 kg/m3
318.2 K, x2 = 0
  mass density: 1216.2 ± 5.7 kg/m3
318.2 K, x2 = 0.0503
  mass density: 1216.2 ± 5.7 kg/m3
318.2 K, x2 = 0.0983
  mass density: 1215.1 ± 5.7 kg/m3
318.2 K, x2 = 0.1495
  mass density: 1213.9 ± 5.7 kg/m3
318.2 K, x2 = 0.1996
  mass density: 1213 ± 5.7 kg/m3
318.2 K, x2 = 0.2505
  mass density: 1211.7 ± 5.7 kg/m3
318.2 K, x2 = 0.2999
  mass density: 1210.1 ± 5.7 kg/m3
318.2 K, x2 = 0.3504
  mass density: 1208.7 ± 5.6 kg/m3
318.2 K, x2 = 0.3987
  mass density: 1206.8 ± 5.6 kg/m3
318.2 K, x2 = 0.4505
  mass density: 1204.6 ± 5.6 kg/m3
318.2 K, x2 = 0.4994
  mass density: 1202.2 ± 5.5 kg/m3
318.2 K, x2 = 0.5495
  mass density: 1199.4 ± 5.5 kg/m3
318.2 K, x2 = 0.6
  mass density: 1195.6 ± 5.4 kg/m3
318.2 K, x2 = 0.6504
  mass density: 1190.8 ± 5.4 kg/m3
318.2 K, x2 = 0.6999
  mass density: 1184.7 ± 5.3 kg/m3
318.2 K, x2 = 0.7502
  mass density: 1176.6 ± 5.2 kg/m3
318.2 K, x2 = 0.8
  mass density: 1165.6 ± 5 kg/m3
318.2 K, x2 = 0.8499
  mass density: 1150 ± 4.8 kg/m3
318.2 K, x2 = 0.9
  mass density: 1124.4 ± 4.4 kg/m3
328.2 K, x2 = 0
  mass density: 1209.9 ± 5.7 kg/m3
328.2 K, x2 = 0.0503
  mass density: 1209.8 ± 5.7 kg/m3
328.2 K, x2 = 0.0983
  mass density: 1208.6 ± 5.6 kg/m3
328.2 K, x2 = 0.1495
  mass density: 1207.5 ± 5.6 kg/m3
328.2 K, x2 = 0.1996
  mass density: 1206.6 ± 5.6 kg/m3
328.2 K, x2 = 0.2505
  mass density: 1205.3 ± 5.6 kg/m3
328.2 K, x2 = 0.2999
  mass density: 1203.8 ± 5.6 kg/m3
328.2 K, x2 = 0.3504
  mass density: 1202.4 ± 5.5 kg/m3
328.2 K, x2 = 0.3987
  mass density: 1200.3 ± 5.5 kg/m3
328.2 K, x2 = 0.4505
  mass density: 1198.6 ± 5.5 kg/m3
328.2 K, x2 = 0.4994
  mass density: 1196.2 ± 5.5 kg/m3
328.2 K, x2 = 0.5495
  mass density: 1193 ± 5.4 kg/m3
328.2 K, x2 = 0.6
  mass density: 1189.2 ± 5.3 kg/m3
328.2 K, x2 = 0.6504
  mass density: 1184.4 ± 5.3 kg/m3
328.2 K, x2 = 0.6999
  mass density: 1178.2 ± 5.2 kg/m3
328.2 K, x2 = 0.7502
  mass density: 1170 ± 5.1 kg/m3
328.2 K, x2 = 0.8
  mass density: 1159.1 ± 4.9 kg/m3
328.2 K, x2 = 0.8499
  mass density: 1143.9 ± 4.7 kg/m3
328.2 K, x2 = 0.9
  mass density: 1117.8 ± 4.3 kg/m3
338.2 K, x2 = 0
  mass density: 1203.7 ± 5.6 kg/m3
338.2 K, x2 = 0.0503
  mass density: 1203.6 ± 5.6 kg/m3
338.2 K, x2 = 0.0983
  mass density: 1202.5 ± 5.5 kg/m3
338.2 K, x2 = 0.1495
  mass density: 1201.2 ± 5.5 kg/m3
338.2 K, x2 = 0.1996
  mass density: 1200.1 ± 5.5 kg/m3
338.2 K, x2 = 0.2505
  mass density: 1198.7 ± 5.5 kg/m3
338.2 K, x2 = 0.2999
  mass density: 1198 ± 5.5 kg/m3
338.2 K, x2 = 0.3504
  mass density: 1196.1 ± 5.5 kg/m3
338.2 K, x2 = 0.3987
  mass density: 1194.3 ± 5.4 kg/m3
338.2 K, x2 = 0.4505
  mass density: 1192.2 ± 5.4 kg/m3
338.2 K, x2 = 0.4994
  mass density: 1189.9 ± 5.4 kg/m3
338.2 K, x2 = 0.5495
  mass density: 1186.8 ± 5.3 kg/m3
338.2 K, x2 = 0.6
  mass density: 1183 ± 5.3 kg/m3
338.2 K, x2 = 0.6504
  mass density: 1178 ± 5.2 kg/m3
338.2 K, x2 = 0.6999
  mass density: 1171.8 ± 5.1 kg/m3
338.2 K, x2 = 0.7502
  mass density: 1163.8 ± 5 kg/m3
338.2 K, x2 = 0.8
  mass density: 1153.1 ± 4.8 kg/m3
338.2 K, x2 = 0.8499
  mass density: 1137.8 ± 4.6 kg/m3
338.2 K, x2 = 0.9
  mass density: 1112.4 ± 4.3 kg/m3
